Converted amounts (≈) assume the structure as drawn. Like-named read-outs stand apart in the source and are kept apart here.
How the values were obtained:
[1] = system: intracellular M. tuberculosis H37Rv in THP-1 cells; test: Activity against intracellular mycobacteria, 4-h pulsed exposure; type: cell-based, M. tuberculosis; human THP-1 cells; details: further 68-h culture
CYP1A1/2 = test: 7-Ethoxyresorufin O-deethylation in human liver microsomes; type: in vitro ADME; details: 0.5 μM 7-ethoxyresorufin
CYP2C8/9 = test: Tolubutamide methylhydroxylation in human liver microsomes; type: in vitro ADME; details: 400 μM tolbutamide
M. tuberculosis Kurono = test: Therapeutic efficacy in an experimental mouse model of chronic TB; type: in vivo, ICR mice; details: for Log of Viable Counts/Lung: mean ± S.D., n = 5
CYP2B6 = target: T1, CYP2B6 (Homo sapiens, UniProt P20813); details: […] 7-benzyloxyresorufin
T1 sequence (P20813 1-491): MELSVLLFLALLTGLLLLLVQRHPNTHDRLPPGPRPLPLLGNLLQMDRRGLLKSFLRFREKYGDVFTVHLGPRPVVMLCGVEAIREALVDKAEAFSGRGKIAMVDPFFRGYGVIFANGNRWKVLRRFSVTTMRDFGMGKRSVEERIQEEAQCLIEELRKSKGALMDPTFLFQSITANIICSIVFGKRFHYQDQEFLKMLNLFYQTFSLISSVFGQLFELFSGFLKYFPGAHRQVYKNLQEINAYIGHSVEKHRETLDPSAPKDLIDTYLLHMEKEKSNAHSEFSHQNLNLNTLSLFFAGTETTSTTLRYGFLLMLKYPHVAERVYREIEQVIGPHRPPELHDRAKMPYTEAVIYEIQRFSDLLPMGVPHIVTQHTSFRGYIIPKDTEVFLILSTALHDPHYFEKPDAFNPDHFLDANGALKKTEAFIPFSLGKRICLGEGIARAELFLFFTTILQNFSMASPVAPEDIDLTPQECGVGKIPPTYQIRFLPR

[2] = system: M. tuberculosis ATCC 35822 (H37Rv-H-R); test: microbe, parasite or virus in culture; type: cell-based; details: Mycobacterium tuberculosis, 336 h
[3] = Plasma levels in an experimental mouse model of TB; details: in vivo, po
[4] = system: mycolic acid synthesis in M. bovis BCG; test: microbe, parasite or virus in culture; type: cell-based; details: for IC50: Mycobacterium tuberculosis variant bovis BCG, BCG
[5] = system: M. tuberculosis ATCC 35837 (H37Rv-E-R); test: microbe, parasite or virus in culture; type: cell-based; details: Mycobacterium tuberculosis, 336 h
[6] = system: Salmonella tyiphimurium TA98, TA100, TA1535, and TA1537, and Escherichia coli WP2 uvrA; test: Bacterial reverse mutation (BRM) test, overall result; type: cell-based; details: absence and presence of S9 mix, OECD Guideline 471
Experimental: (§1) The BRM test was performed in accordance with OECD Guideline 471 using Salmonella tyiphimurium TA98, TA100, TA1535, and TA1537, and Escherichia coli WP2 uvrA [11]. Each bacterial strain was pre-cultured at 37 °C for 18 h using a nutrient broth (Nissui Pharmaceutical; http://www.nissui-pharm.co.jp/index_e.html). After adjustment to 2.4 at OD660 nm, each bacterial suspension was added to a test tube containing the designated compound in the absence or presence of rat liver microsome (S9) mix. After a 20-min incubation at 37 °C, top agar was added to each test tube and the contents were poured into minimum essential medium (Oriental Yeast; http://www.oyc.co.jp/e/index.htm). The number of revertants was counted 48 h after incubation at 37 °C.

[7] = system: M. tuberculosis ATCC 25618 (H37Rv); test: Susceptibility testing (agar dilution MIC); type: cell-based; details: Mycobacterium tuberculosis, 336 h; 7H11 agar, 37 °C, 14 d; read-out: MIC
S. typhimurium TA1537 = test: Bacterial reverse mutation (BRM) test; type: cell-based
Experimental: as §1

E. coli WP2 uvr A = test: Bacterial reverse mutation (BRM) test; type: cell-based
Experimental: as §1

S. typhimurium TA98 = test: Bacterial reverse mutation (BRM) test; type: cell-based
Experimental: as §1

S. typhimurium TA1535 = test: Bacterial reverse mutation (BRM) test; type: cell-based
Experimental: as §1

C[C@]1(COc2ccc(N3CCC(Oc4ccc(OC(F)(F)F)cc4)CC3)cc2)Cn2cc([N+](=O)[O-])nc2O1 [OPC-67683, (R)-2-methyl-6-nitro-2-(4-[4-(4-trifluoromethoxyphenoxy)piperidin-1-yl]phenoxymethyl}-2,3-dihydroimidazo[2,1-b]oxazole]
Activity against intracellular M. tuberculosis H37Rv [1]: highly active | Percent of Control (CYP1A1/2; 10 μM): 98.4% of Control | Percent of Control (CYP1A1/2; 30 μM): 102.5% of Control | Percent of Control (CYP1A1/2; 100 μM): 98.6% of Control | Percent of Control (CYP2C8/9; 10 μM): 107.2% of Control | Percent of Control (CYP2C8/9; 30 μM): 107.8% of Control | Percent of Control (CYP2C8/9; 100 μM): 108.5% of Control | Log of Viable Counts/Lung (M. tuberculosis Kurono; 0.156 mg/kg once daily for 28 d (4 weeks)): 6.506 ± 0.294^a:NS, b:NS | Log of Viable Counts/Lung (M. tuberculosis Kurono; 0.313 mg/kg once daily for 28 d (4 weeks)): 5.959 ± 0.436^a:**, b:** | Log of Viable Counts/Lung (M. tuberculosis Kurono; 0.625 mg/kg once daily for 28 d (4 weeks)): 5.457 ± 0.245^a:**, b:** | Log of Viable Counts/Lung (M. tuberculosis Kurono; 1.25 mg/kg once daily for 28 d (4 weeks)): 4.867 ± 0.400^a:**, b:** | Log of Viable Counts/Lung (M. tuberculosis Kurono; 2.5 mg/kg once daily for 28 d (4 weeks)): 4.753 ± 0.297^a:**, b:** | Log of Viable Counts/Lung (M. tuberculosis Kurono; 5 mg/kg once daily for 28 d (4 weeks)): 4.272 ± 0.463^a:**, b:** | Log of Viable Counts/Lung (M. tuberculosis Kurono; 10 mg/kg once daily for 28 d (4 weeks)): 3.943 ± 0.465^a:**, b:** | Log of Viable Counts/Lung (M. tuberculosis Kurono; 20 mg/kg once daily for 28 d (4 weeks)): 3.495 ± 0.522^a:**, b:** | Log of Viable Counts/Lung (M. tuberculosis Kurono; 40 mg/kg once daily for 28 d (4 weeks)): 2.791 ± 0.671^a:**, b:** | Dose that could produce a CFU reduction of at least 95% (M. tuberculosis Kurono; lung, once daily for 28 d): 0.625 mg/kg | Percent of Control (CYP2B6; 10 μM): 118.3% of Control | Percent of Control (CYP2B6; 30 μM): 112.8% of Control | Percent of Control (CYP2B6; 100 μM): 122.3% of Control | MIC [2]: 0.012 µg/mL (≈ 0.0225 µM) | concentration at 1 h [3]: 133 ± 30 ng/mL | concentration at 2 h [3]: 193 ± 40 ng/mL | concentration at 4 h [3]: 220 ± 20 ng/mL | concentration at 6 h [3]: 297 ± 83 ng/mL | AUC(0-t) ([3]; 2.5 mg/kg): 4130 ng·h/mL | Cmax ([3]; 2.5 mg/kg): 297 ng/mL | Tmax ([3]; 2.5 mg/kg): 6 h | concentration at 12 h ([3]; 2.5 mg/kg): 166 ± 49 ng/mL | concentration at 24 h ([3]; 2.5 mg/kg): 49 ± 12 ng/mL | half-life ([3]; 2.5 mg/kg): 7.6 h | IC50, α-Mycolic acid ([4]; 14C acetic acid incorporation, 60 min, TLC n = 3): >0.25 µg/mL | IC50 ([4]; 1 h, read-out: IC50, Fatty acid): > 0.25 µg/mL | IC50 ([4]; 1 h, read-out: IC50, Keto-mycolic acid): 0.021 µg/mL (≈ 0.0393 µM) | IC50 ([4]; 1 h, read-out: IC50, Methoxy-mycolic acid): 0.036 µg/mL (≈ 0.0674 µM) | IC50 ([4]; 1 h, read-out: IC50, α-Mycolic acid): > 0.25 µg/mL | IC50 ([4]; read-out: IC50 values, synthesis of methoxy- and keto-mycolic acid): 0.021 to 0.036 µg/mL (≈ 0.0393 to 0.0674 µM) | MIC [5]: 0.012 µg/mL (≈ 0.0225 µM) | Mutagenic potential in the BRM test [6]: did not show mutagenicity | MIC [7]: 0.012 µg/mL (≈ 0.0225 µM) | Revertants/Plate (S. typhimurium TA1537; S9 mix +, 312.5 μg/plate): 73 Revertants/Plate | Revertants/Plate (S. typhimurium TA1537; S9 mix +, 625 μg/plate): 72 Revertants/Plate | Revertants/Plate (S. typhimurium TA1537; S9 mix +, 1,250 μg/plate): 66 Revertants/Plate | Revertants/Plate (S. typhimurium TA1537; S9 mix +, 2,500 μg/plate): 63 Revertants/Plate | Revertants/Plate (S. typhimurium TA1537; S9 mix +, 5,000 μg/plate): 74 Revertants/Plate | Revertants/Plate (S. typhimurium TA1537; S9 mix −, 312.5 μg/plate): 60 Revertants/Plate | Revertants/Plate (S. typhimurium TA1537; S9 mix −, 625 μg/plate): 62 Revertants/Plate | Revertants/Plate (S. typhimurium TA1537; S9 mix −, 1,250 μg/plate): 54 Revertants/Plate | Revertants/Plate (S. typhimurium TA1537; S9 mix −, 2,500 μg/plate): 61 Revertants/Plate | Revertants/Plate (S. typhimurium TA1537; S9 mix −, 5,000 μg/plate): 63 Revertants/Plate | Revertants/Plate (E. coli WP2 uvr A; S9 mix +, 312.5 μg/plate): 23 Revertants/Plate | Revertants/Plate (E. coli WP2 uvr A; S9 mix +, 625 μg/plate): 20 Revertants/Plate | Revertants/Plate (E. coli WP2 uvr A; S9 mix +, 1,250 μg/plate): 25 Revertants/Plate | Revertants/Plate (E. coli WP2 uvr A; S9 mix +, 2,500 μg/plate): 23 Revertants/Plate | Revertants/Plate (E. coli WP2 uvr A; S9 mix +, 5,000 μg/plate): 29 Revertants/Plate | Revertants/Plate (E. coli WP2 uvr A; S9 mix −, 312.5 μg/plate): 23 Revertants/Plate | Revertants/Plate (E. coli WP2 uvr A; S9 mix −, 625 μg/plate): 25 Revertants/Plate | Revertants/Plate (E. coli WP2 uvr A; S9 mix −, 1,250 μg/plate): 20 Revertants/Plate | Revertants/Plate (E. coli WP2 uvr A; S9 mix −, 2,500 μg/plate): 24 Revertants/Plate | Revertants/Plate (E. coli WP2 uvr A; S9 mix −, 5,000 μg/plate): 24 Revertants/Plate | Revertants/Plate (S. typhimurium TA98; S9 mix +, 312.5 μg/plate): 31 Revertants/Plate | Revertants/Plate (S. typhimurium TA98; S9 mix +, 625 μg/plate): 31 Revertants/Plate | Revertants/Plate (S. typhimurium TA98; S9 mix +, 1,250 μg/plate): 30 Revertants/Plate | Revertants/Plate (S. typhimurium TA98; S9 mix +, 2,500 μg/plate): 31 Revertants/Plate | Revertants/Plate (S. typhimurium TA98; S9 mix +, 5,000 μg/plate): 35 Revertants/Plate | Revertants/Plate (S. typhimurium TA98; S9 mix −, 312.5 μg/plate): 29 Revertants/Plate | Revertants/Plate (S. typhimurium TA98; S9 mix −, 625 μg/plate): 29 Revertants/Plate | Revertants/Plate (S. typhimurium TA98; S9 mix −, 1,250 μg/plate): 34 Revertants/Plate | Revertants/Plate (S. typhimurium TA98; S9 mix −, 2,500 μg/plate): 37 Revertants/Plate | Revertants/Plate (S. typhimurium TA98; S9 mix −, 5,000 μg/plate): 31 Revertants/Plate | Revertants/Plate (S. typhimurium TA1535; S9 mix +, 625 μg/plate): 6 Revertants/Plate | Revertants/Plate (S. typhimurium TA1535; S9 mix +, 2,500 μg/plate): 8 Revertants/Plate | Revertants/Plate (S. typhimurium TA1535; S9 mix +, 5,000 μg/plate): 9 Revertants/Plate | Revertants/Plate (S. typhimurium TA1535; S9 mix −, 312.5 μg/plate): 6 Revertants/Plate | Revertants/Plate (S. typhimurium TA1535; S9 mix −, 625 μg/plate): 9 Revertants/Plate | Revertants/Plate (S. typhimurium TA1535; S9 mix −, 2,500 μg/plate): 7 Revertants/Plate | Revertants/Plate (S. typhimurium TA1535; S9 mix −, 5,000 μg/plate): 6 Revertants/Plate

Source: publication PMC1664607 (PLoS Medicine, 2006)
